Test [1] addresses GDP-bound HRAS wild-type protein (Homo sapiens, UniProt P01112). The test can be described thus: Binding to HRAS by surface plasmon resonance (SPR), Single Cycle Kinetics. The note with it: for HRAS/KRAS (ratio of KD value for HRAS to KD value for KRAS): GDP-bound HRAS wild-type vs GDP-bound KRAS wild-type.
Test [2] has as its target GDP-bound NRAS wild-type protein (Homo sapiens, UniProt P01111). Description: Binding to NRAS by surface plasmon resonance (SPR), Single Cycle Kinetics. Particulars: for NRAS/KRAS (ratio of KD value for NRAS to KD value for KRAS): GDP-bound NRAS wild-type vs GDP-bound KRAS wild-type. For orientation: SPR reads the build-up and loss of mass on a sensor chip optically.

*1 amine or outer side, *2 acyl side, *3 side chain or, on linkers, in order; H or OH if unused. Where a SMILES comes first, the peptide text is derived from it. Bridges are numbered along the chain shown (N, C = ends). [ ]: non-standard residue; d: D form. The star is where a group is joined. hPhe(3-Cl-4-CF3) = N[C@@H](CCc1ccc(C(F)(F)F)c(Cl)c1)C(=O)O; NPrPhe(4-CF3) = CCCN[C@@H](Cc1ccc(C(F)(F)F)cc1)C(=O)O; NEtAsp = CCN([C@@H](CC(=O)[*:3])C(=O)[*:2])[*:1]; NMeGly(cPent) = CN[C@H](C(=O)O)C1CCCC1; NMeD = CN[C@@H](CC(=O)O)C(=O)O; NMeL = CN[C@@H](CC(C)C)C(=O)O; NMeAbu = CC[C@H](NC)C(=O)O; Morpholide = C1CN(*)CCO1; NMeA = CN[C@@H](C)C(=O)O; Ac5c = NC1(C(=O)O)CCCC1; Aze = O=C(O)[C@@H]1CCN1; Ac4c = NC1(C(=O)O)CCC1; Sar = CNCC(=O)O

Chain of GDP-bound HRAS wild-type protein (P01112 whole entry): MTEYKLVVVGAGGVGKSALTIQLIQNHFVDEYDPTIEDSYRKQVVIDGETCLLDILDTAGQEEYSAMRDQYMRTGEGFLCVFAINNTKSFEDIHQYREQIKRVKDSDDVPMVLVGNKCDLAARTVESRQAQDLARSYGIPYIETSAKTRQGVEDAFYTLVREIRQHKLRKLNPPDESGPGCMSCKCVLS
Chain of GDP-bound NRAS wild-type protein (P01111 whole entry): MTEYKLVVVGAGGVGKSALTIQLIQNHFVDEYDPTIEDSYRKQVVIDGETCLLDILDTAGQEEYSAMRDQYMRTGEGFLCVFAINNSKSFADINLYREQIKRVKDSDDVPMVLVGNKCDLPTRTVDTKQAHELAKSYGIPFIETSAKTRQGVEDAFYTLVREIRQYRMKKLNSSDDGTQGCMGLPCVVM

In the case of `CC[C@H](C)[C@@H]1NC(=O)[C@H](CC(C)C)N(C)C(=O)C[C@@H](C(=O)N2CCOCC2)N(C)C(=O)[C@H](C2CCCC2)N(C)C(=O)C2(CCCC2)NC(=O)[C@@H]2CCCN2C(=O)[C@H](CCc2ccc(C(F)(F)F)c(Cl)c2)NC(=O)CN(C)C(=O)[C@H](Cc2ccc(C)cc2)N2CC/C=C\C[C@@H](C2=O)N(C)C(=O)CN(C)C1=O` [PP0461], in test [1] (KD ratio HRAS/KRAS, SPR), the “HRAS/KRAS (ratio of KD value with respect to GDP-bound HRAS wild-type protein to KD value with respect to KRAS)” value was “A (a compound having 10 or more and less than 20 is denoted as A)”. In test [2] (KD ratio NRAS/KRAS, SPR), the “NRAS/KRAS (ratio of KD value with respect to GDP-bound NRAS wild-type protein to KD value with respect to KRAS)” value was “A (a compound having 10 or more and less than 20 is denoted as A)”.

Turning to `CCCN(C)C(=O)[C@@H]1CC(=O)N(C)[C@@H](CCOC)C(=O)N[C@@H]([C@@H](C)CC)C(=O)N(C)CC(=O)N(C)[C@H]2C/C=C\CCN(C2=O)[C@@H](Cc2ccc(C(F)(F)F)cc2)C(=O)N(C)CC(=O)N[C@@H](CCc2ccc(C(F)(F)F)c(OC)c2)C(=O)N2C[C@@H](C)C[C@H]2C(=O)NC2(CC(C)(C)C2)C(=O)N(C)[C@@H](C2CCCC2)C(=O)N1C` [PP2001], the “HRAS/KRAS (ratio of KD value for HRAS to KD value for KRAS)” value in test [1] (SPR) was “A (a compound having 10 or more and less than 20 is denoted as A)”. Also, in test [2] (SPR), the “NRAS/KRAS (ratio of KD value for NRAS to KD value for KRAS)” value is “A (a compound having 10 or more and less than 20 is denoted as A)”.

Consider `CCO[C@@H]1C[C@H]2C(=O)NC3(CCC3)C(=O)N(C)[C@@H](C3CCCC3)C(=O)N(C)[C@H](C(=O)N(C)CC)CC(=O)N(C)[C@@H](CC3CC3)C(=O)N[C@@H]([C@@H](C)CC)C(=O)N(C)CC(=O)N(C)[C@H]3C/C=C\CCN(C3=O)[C@@H](Cc3ccc(C(F)(F)F)cc3)C(=O)N(C)CC(=O)N[C@@H](CCc3cc(F)c(C(F)(F)F)c(F)c3)C(=O)N2C1` [PP1301], for which the “HRAS/KRAS (ratio of KD value for GDP-bound HRAS wild-type protein to KD value for KRAS)” value in test [1] (SPR, KD ratio class) is “A (a compound having 10 or more and less than 20 is denoted as A)”. The “NRAS/KRAS (ratio of KD value for GDP-bound NRAS wild-type protein to KD value for KRAS)” value in test [2] (SPR, KD ratio class) is “A (a compound having 10 or more and less than 20 is denoted as A)”.

With `CCCN1C(=O)[C@@H]2CCN2C(=O)[C@H](C)N(C)C(=O)[C@H]([C@@H](C)CC)NC(=O)[C@H](CC)N(C)C(=O)C[C@@H](C(=O)N2CCOCC2)N(C)C(=O)[C@H](C2CCCC2)N(C)C(=O)C2(CCCC2)NC(=O)[C@@H]2CCCN2C(=O)[C@H](CCc2ccc(C(F)(F)F)c(Cl)c2)NC(=O)CN(C)C(=O)[C@@H]1Cc1ccc(C(F)(F)F)cc1` [PP0194] ([NMeAbu]I[NMeA][Aze][NPrPhe(4-CF3)][Sar][hPhe(3-Cl-4-CF3)]P[Ac5c][NMeGly(cPent)][NMeD]-Morpholide; lactam N-11), the “HRAS/KRAS (ratio of KD for GDP-bound HRAS wild-type to KD for KRAS)” value in test [1] (KD ratio HRAS/KRAS, SPR) was “B (a compound having 3 or more and less than 10 is denoted as B)”. Besides, in test [2] (KD ratio NRAS/KRAS, SPR), the “NRAS/KRAS (ratio of KD for GDP-bound NRAS wild-type to KD for KRAS)” value is “C (A compound having a KD ratio of 0.1 or more and less than 3 is denoted as C)”.

In the case of `CCC(CC)[C@H]1C(=O)N(C)[C@H](C(=O)N(C)C)CC(=O)N(C)[C@@H](COC)C(=O)N[C@@H]([C@@H](C)CC)C(=O)N2CCC[C@H]2C(=O)N(C)[C@H]2C/C=C\CCN(C2=O)[C@@H](Cc2ccc(C(F)(F)F)cc2)C(=O)N(C)CC(=O)N[C@@H](CCc2ccc(Cl)c(Cl)c2)C(=O)N2C[C@H](OC3CCC3)C[C@H]2C(=O)NC2(CC(C)(C)C2)C(=O)N1C` [PP2645], the “HRAS/KRAS (ratio of KD value with respect to GDP-bound HRAS wild-type protein to KD value with respect to KRAS)” value in test [1] (KD ratio HRAS/KRAS, class symbols) is “A (a compound having 10 or more and less than 20 is denoted as A)”. The “NRAS/KRAS (ratio of KD value with respect to GDP-bound NRAS wild-type protein to KD value with respect to KRAS)” value in test [2] (KD ratio NRAS/KRAS, class symbols) is listed as “AA (a compound having 20 or more is denoted as AA)”.

As to `CCCN1C(=O)CN(C)C(=O)CN(C)C(=O)[C@H]([C@@H](C)CC)NC(=O)[C@H](CC(C)C)N(C)C(=O)C[C@@H](C(=O)N2CCOCC2)N(CC)C(=O)[C@H](C2CCCC2)N(C)C(=O)C2(CCC2)NC(=O)[C@@H]2CCCN2C(=O)[C@H](CCc2ccc(C(F)(F)F)c(Cl)c2)NC(=O)CN(C)C(=O)[C@@H]1Cc1ccc(C(F)(F)F)cc1` [PP1953] ([NMeL]I[Sar][Sar][NPrPhe(4-CF3)][Sar][hPhe(3-Cl-4-CF3)]P[Ac4c][NMeGly(cPent)][NEtAsp]-Morpholide; lactam N-11), the “HRAS/KRAS (ratio of KD value for HRAS to KD value for KRAS)” value in test [1] (SPR) was “B (a compound having 3 or more and less than 10 is denoted as B)”. Moreover, the “NRAS/KRAS (ratio of KD value for NRAS to KD value for KRAS)” value in test [2] (SPR) was “B (a compound having 3 or more and less than 10 is denoted as B)”.

With `CC[C@H](C)[C@@H]1NC(=O)[C@H](C2CC2)N(C)C(=O)C[C@@H](C(=O)N(C)C)N(C)C(=O)[C@H](C2CCCC2)N(C)C(=O)C2(CCC2)N(C)C(=O)[C@@H]2CCCN2C(=O)[C@H](CCc2cc(F)c(C(F)(F)F)c(F)c2)NC(=O)CN(C)C(=O)[C@H](Cc2ccc(C)cc2)N2CC/C=C\C[C@@H](C2=O)N(C)C(=O)CN(C)C1=O` [PP1784], the “HRAS/KRAS (ratio of KD value for HRAS to KD value for KRAS)” value in test [1] (SPR) is “B (a compound having 3 or more and less than 10 is denoted as B)”. Also, in test [2] (SPR), the “NRAS/KRAS (ratio of KD value for NRAS to KD value for KRAS)” value is “A (a compound having 10 or more and less than 20 is denoted as A)”.

Values taken from patent US20250230193A1, “CYCLIC COMPOUND HAVING SELECTIVE KRAS INHIBITORY EFFECT ON HRAS AND NRAS” (CHUGAI SEIYAKU KABUSHIKI KAISHA, priority 2022, published 2025).
